Consider 13 compounds from patent publication US20240158377A1, “NOVEL SALT FORMS OF A 4H-PYRAN-4-ONE STRUCTURED CYP11A1 INHIBITOR” (Orion Corporation, priority 2021, published 2024).

Structures are written as SMILES. Where a name gives a salt, the structure may show the parent alone.

Holding throughout (type): physicochemical
Data set [1] is described as follows: Weight loss of the salts during heating by thermogravimetric analysis (TGA). Conditions: for Weight loss: TGA, heating rate 10° C./min, open pan. As to the method:
Weight loss of the salts during heating was determined by thermogravimetric analysis (TGA) thermograms collected on TGA equipment (TA Instruments). Heating rate 10° C./min, 25-300° C., open pan.
Weight loss of each salt of compound (I) during heating was determined by thermogravimetric analysis (TGA) thermograms collected on TGA equipment (TA Instruments). Heating rate 10° C./min, 25-300° C., open pan.

Assay in data set [2]: as above
To be noted: heating rate 10° C./min, 30-250° C., open pan, weight loss over 30-200° C.

The nature of data set [3]: Chemical stability: accelerated stability study of pressed tablets, degradation product A, prediction with ASAPprime software. To be noted: summary statement. As to the method:
The degradation rate of various salts of compound (I) was determined by measuring the amount of shelf-life determining degradation product 2-[(5-{[1-(methanesulfonyl)piperidin-4-yl]methoxy}-4-oxo-4H-pyran-2-yl)methyl]-2,3-dihydro-1H-isoindol-1 -one (degradation product A) from an accelerated stability study wherein samples were stored at various different temperature and relative humidity conditions. Each sample consisted of a pressed tablet containing a constant amount of the tested salt together with conventional excipients. The predicted increase (Δ %) of the degradation product A after 5 years was calculated with ASAPprime® software using the following parameters: • Bottle volume and material: 100 ml (HDPE HIS) • Desiccant: Silica (1 g) • Tablet amount: 60 • Conditions: 25° C./60% RH

As to `CS(=O)(=O)N1CCC(COc2coc(CN3Cc4ccccc4C3)cc2=O)CC1` [Nitric acid salt, 2-(isoindolin-2-ylmethyl)-5-((1-(methylsulfonyl)piperidin-4-yl)methoxy)-4H-pyran-4-one], the Weight loss in data set [1] (weight loss over 25-205° C.) was 0.9%.
Take `CS(=O)(=O)N1CCC(COc2coc(CN3Cc4ccccc4C3)cc2=O)CC1` [Methanesulfonic acid salt, 2-(isoindolin-2-ylmethyl)-5-((1-(methylsulfonyl)piperidin-4-yl)methoxy)-4H-pyran-4-one]: the Weight loss in data set [1] (weight loss over 25-75° C.) is given as 5%.
As to `CS(=O)(=O)N1CCC(COc2coc(CN3Cc4ccccc4C3)cc2=O)CC1` [1,2-Ethanedisulfonic acid salt, 2-(isoindolin-2-ylmethyl)-5-((1-(methylsulfonyl)piperidin-4-yl)methoxy)-4H-pyran-4-one], the Weight loss in data set [1] (weight loss over 25-100° C.) came out at 9.9%.
`CS(=O)(=O)N1CCC(COc2coc(CN3Cc4ccccc4C3)cc2=O)CC1` [Hydrochloric acid salt (form 3), 2-(isoindolin-2-ylmethyl)-5-((1-(methylsulfonyl)piperidin-4-yl)methoxy)-4H-pyran-4-one]: the Weight loss in data set [1] (weight loss over 25-190° C.) is 0.5%.
`O=S(=O)(O)c1cccc2c(S(=O)(=O)O)cccc12` [1,5-Naphthalenedisulfonic acid]: the Weight loss in data set [1] (weight loss over 25-220° C.) is listed as 0.3%.
On the same count and under the same terms, the result for `CS(=O)(=O)N1CCC(COc2coc(CN3Cc4ccccc4C3)cc2=O)CC1` [Benzenesulfonic acid salt, 2-(isoindolin-2-ylmethyl)-5-((1-(methylsulfonyl)piperidin-4-yl)methoxy)-4H-pyran-4-one] reads 0.3%; that for `CS(=O)(=O)N1CCC(COc2coc(CN3Cc4ccccc4C3)cc2=O)CC1` [hydrobromic acid salt, 2-(isoindolin-2-ylmethyl)-5-((1-(methylsulfonyl)piperidin-4-yl)methoxy)-4H-pyran-4-one], 0.1%.
For the compound `CS(=O)(=O)N1CCC(COc2coc(CN3Cc4ccccc4C3)cc2=O)CC1` [Maleic acid salt (form 3), 2-(isoindolin-2-ylmethyl)-5-((1-(methylsulfonyl)piperidin-4-yl)methoxy)-4H-pyran-4-one], in data set [1] (weight loss over 25-120° C.), the Weight loss was found to be 3.2%.
Take `CS(=O)(=O)N1CCC(COc2coc(CN3Cc4ccccc4C3)cc2=O)CC1` [p-toluenesulfonic acid salt, 2-(isoindolin-2-ylmethyl)-5-((1-(methylsulfonyl)piperidin-4-yl)methoxy)-4H-pyran-4-one]: the Weight loss in data set [2] is reported as 0.2%. In addition, the “solid-state stability in pharmaceutical dosage forms such as tablets (in words)” value in data set [3] is “excellent sold-state stability”. The “weight loss during heating (in words)” value in data set [1] (crystalline salt, summary statement) was “low weight loss during heating”.
Consider `CS(=O)(=O)N1CCC(COc2coc(CN3Cc4ccccc4C3)cc2=O)CC1` [Ethanesulfonic acid salt, 2-(isoindolin-2-ylmethyl)-5-((1-(methylsulfonyl)piperidin-4-yl)methoxy)-4H-pyran-4-one], for which the Weight loss in data set [1] (weight loss over 25-190° C.) is reported as less than 0.3%.
Take `CS(=O)(=O)N1CCC(COc2coc(CN3Cc4ccccc4C3)cc2=O)CC1` [Sulfuric acid salt (form 2), 2-(isoindolin-2-ylmethyl)-5-((1-(methylsulfonyl)piperidin-4-yl)methoxy)-4H-pyran-4-one]: the Weight loss in data set [1] (weight loss over 25-100° C.) amounted to 8%.
On to `O=S(=O)(O)c1ccc2ccccc2c1` [2-Naphthalenesulphonic acid], for which, in data set [1] (weight loss over 25-225° C.), the Weight loss is less than 0.1%.
With `CS(=O)(=O)N1CCC(COc2coc(CN3Cc4ccccc4C3)cc2=O)CC1` [Oxalic acid salt (form 1), 2-(isoindolin-2-ylmethyl)-5-((1-(methylsulfonyl)piperidin-4-yl)methoxy)-4H-pyran-4-one], the Weight loss in data set [1] (weight loss over 25-175° C.) stood at 0.4%.
